This is an account of results in US6794544B2, “Method for the preparation of tetrahydrobenzothiepines” (Pharmacia Corporation, priority 2000, dated 2004).

This series can be described thus: Water uptake experiments (Dynamic Vapor Sorption, water sorption/desorption isotherms). Format: physicochemical. Here is the method: A dry sample of the crystalline form having a melting point or a decomposition point of about 278° C. to about 285° C. (i.e., Form 11) typically gains less than about 1% of its own weight when equilibrated under 80% relative humidity (RH) air at 25° C. […] For the present purposes, the term “essentially 0% RH” means less than about 1% RH. The term “equilibrated” means that the change in weight of a sample over time at a given relative humidity is less than 0.0003% ((dm/dt)/m0×100, where m is mass in mg, m0 is initial mass, and t is time in minutes).
Water sorption experiments are performed on a Dynamic Vapor Sorption (DVS) apparatus (DVS-1000 manufactured by Surface Measurements Systems, Inc.). Experiments are performed at 25° C. by initially drying the material of interest (about 10 mg sample) from 30% relative humidity (RH) (ambient room condition) to about 9% RH in a stepwise fashion (10% RH step) by purging with dry nitrogen until no further weight change was observed. The samples are then exposed to a stepwise (10% RH steps) increase in RH from about 0 to about 90% RH. Each successive step is initiated when the change in weight over time at the relative humidity was less than 0.0003% ((dm/dt)/m0×100, where m is mass in mg, m0 is initial mass, and t is time in minutes). […] The data are collected on a computer and analyzed using SMS′ proprietary MS-Excel macro interface software.

Structures are written as SMILES.

On to `CCCCC1(CCCC)CS(=O)(=O)c2ccc(N(C)C)cc2[C@@H](c2ccc(OCc3ccc(C[N+]45CCN(CC4)CC5)cc3)cc2)[C@H]1O` [Form II, (4R,5R)-1-((4-(4-(3,3-dibutyl-7-(dimethylamino)-2,3,4,5-tetrahydro-4-hydroxy-1,1-dioxido-1-benzithiepin-5-yl)phenoxy)methyl)phenyl)methyl-4-aza-1-azoniabicyclo[2.2.2]octane chloride], for which the “weight gain of the sample (of its own weight)” value (dried at essentially 0% RH at about 25° C. under dry nitrogen, then equilibrated under about 80% RH air at about 25° C.) was “less than 1%”. For the setting “dry sample equilibrated under 80% RH air at 25° C.”, the hygroscopicity entry was “essentially nonhygroscopic”.
